The values that follow come from patent US5846976A, “Androstenone derivative” (Glaxo Wellcome Inc., priority 1996, dated 1998).

Some results are limits rather than exact numbers.

For data set [1] the following is noted: McConnell 1990; Rasmusson et al. 1984; cited from earlier work.
Data set [2] concerns bovine adrenal 3β-hydroxy-Δ^5-steroid dehydrogenase/3-keto-Δ^5-steroid isomerase (3BHSD). Particulars: Tan et al. 1987; Brandt and Levy 1989; cited from earlier work.
For data set [3], the system named is porcine granulosa cell 3β-hydroxy-Δ^5-steroid dehydrogenase/3-keto-Δ^5-steroid isomerase (3BHSD). The conditions noted are these: Tan et al. 1987; Brandt and Levy 1989; cited from earlier work.
The nature of data set [4]: Half-life compared to finasteride and SKF105657.
The target in another data set is T1, Human Adrenal 3BHSD (Homo sapiens, UniProt P26439).
T1 construct: microsomes derived from human adrenal tissues; from tissue; host or cells: human adrenal tissue (microsomes)
T1 sequence (P26439 1-372): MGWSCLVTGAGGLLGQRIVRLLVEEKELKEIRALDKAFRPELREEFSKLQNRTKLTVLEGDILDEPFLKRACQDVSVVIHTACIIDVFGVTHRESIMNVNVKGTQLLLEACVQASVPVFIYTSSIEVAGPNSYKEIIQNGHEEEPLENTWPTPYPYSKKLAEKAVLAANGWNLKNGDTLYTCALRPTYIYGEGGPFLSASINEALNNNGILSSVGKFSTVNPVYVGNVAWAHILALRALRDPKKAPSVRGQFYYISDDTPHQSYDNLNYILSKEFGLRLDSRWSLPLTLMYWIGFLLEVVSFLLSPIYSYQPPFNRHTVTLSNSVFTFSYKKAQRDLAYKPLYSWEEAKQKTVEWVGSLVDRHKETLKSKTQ
The data set is described as follows: Human adrenal 3β-hydroxy-Δ^5-steroid dehydrogenase/3-keto-Δ^5-steroid isomerase inhibition (microsomes, conversion of DHEA to androstenedione). Type of data set: biochemical. As to the method: Enzyme activities are measured using microsomes derived from human adrenal tissues. Microsomes were prepared by homogenization of the tissue followed by differential centrifugation of the homogenate. Microsome extracts were incubated with varying concentrations of dehydroepiandrosterone (DHEA), 1 mM NAD+, and varying amounts of the compound of Formula (I), i.e. a test compound, in pH 7.5 buffer for a period of time within the range of 1 to 60 minutes. Corresponding incubations were carried out with no test compound as a control study. The percentage of conversion of DHEA to androstenedione in the presence of test compounds compared to the corresponding conversion in the control study was estimated using HPLC with radiochemical detection.

For data set [5], the target named is T2, human type 2 5α-reductase (Homo sapiens, UniProt P31213).
T2 construct: made in house; host or cells: SF9 insect cells infected with recombinant baculovirus (microsomes)
T2 sequence (P31213 1-254): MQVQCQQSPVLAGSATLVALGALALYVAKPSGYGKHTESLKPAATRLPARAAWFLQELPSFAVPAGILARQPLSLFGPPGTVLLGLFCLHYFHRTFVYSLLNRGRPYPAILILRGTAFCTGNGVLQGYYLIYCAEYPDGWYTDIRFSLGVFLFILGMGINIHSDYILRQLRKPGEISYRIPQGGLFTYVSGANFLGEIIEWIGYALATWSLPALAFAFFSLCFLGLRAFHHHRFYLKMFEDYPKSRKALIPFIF
Kind of data set: Steroid 5α-reductase type 2 inhibition (microsomes, conversion of testosterone to DHT). The data set is classed as biochemical. As to the method: (§1) Enzyme activies may be determined using microsomes derived from: 1) prostate tissue from benign prostatic hyperplasia (BPH) patients; 2) recombinant baculovirus infected SF9 cells that express human type 1 5α-reductase; or 3) recombinant baculovirus infected SF9 cells that express human type 2 5α-reductase. Microsomes were prepared by homogenization of the tissue or cells, followed by differential centrifugation of the homogenate. Microsome extracts were incubated with varying concentrations of [1,2,6,7-3H]-testosterone, 1 mM NADPH, and varying amounts of the compounds of Formula I, i.e. a test compound, in buffer containing a NADPH regenerating system capable of maintaining NADPH concentrations for a period of time within the range 0.5-240 minutes. Corresponding incubations were carried out with no test compound as a control study. For clone 1 IC50 measurements, assay components except testosterone were preincubated for 10 minutes at pH 7.0, and following the addition of 100 nM testosterone the assays were allowed to proceed for 10-120 minutes. For clone 2 IC50 measurements, assay components except testosterone were preincubated for 20 minutes at pH 6.0, and following the addition of 8 nM testosterone the assays were allowed to proceed for 20-40 minutes. […]

The target of data set [6] is T3, human type 1 5α-reductase (Homo sapiens, UniProt P18405).
T3 construct: made in house; host or cells: SF9 insect cells infected with recombinant baculovirus (microsomes)
T3 sequence (P18405 1-259): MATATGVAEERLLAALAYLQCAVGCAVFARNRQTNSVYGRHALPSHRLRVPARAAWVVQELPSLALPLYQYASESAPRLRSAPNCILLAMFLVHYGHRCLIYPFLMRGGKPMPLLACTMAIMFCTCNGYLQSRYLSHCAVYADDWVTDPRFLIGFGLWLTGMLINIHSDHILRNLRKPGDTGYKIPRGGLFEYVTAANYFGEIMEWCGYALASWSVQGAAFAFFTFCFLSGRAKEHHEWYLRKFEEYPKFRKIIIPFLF
Kind of data set: Steroid 5α-reductase type 1 inhibition (microsomes, conversion of testosterone to DHT). The data set is classed as biochemical. As to the method:
as §1

A further data set has as its system 5α-reductase. The data set is described as follows: Potency compared to finasteride and SKF105657.

In the case of `CCN(CC)C(=O)[C@H]1CC[C@H]2[C@@H]3CC[C@H]4N(C)C(=O)CC[C@]4(C)[C@H]3CC[C@]12C` [4-MA], the hepatotoxicity result in data set [1] is “hepatotoxicity”. Besides, the “inhibition of bovine adrenal 3BHSD” value in data set [2] is reported as “potent inhibition”. The “inhibition of porcine granulosa cell 3BHSD” value in data set [3] is “potent inhibition”.
In the case of `C[C@]12C=CC(=O)N[C@@H]1CC[C@@H]1[C@@H]2CC[C@]2(C)[C@@H](C(=O)Nc3cc(C(F)(F)F)ccc3C(F)(F)F)CC[C@@H]12` [compound of formula (I), 17β-N-(2,5-bis(Trifluoromethyl))phenylcarbamoyl-4-aza-5α-androst-1-en-3-one], the half-life result in data set [4] is “surprisingly long half-life”. In addition, at Human Adrenal 3BHSD, the Ki is above 1000 nM. Moreover, the IC50 in data set [5] and in data set [6] was below 1 nM in each case. Moreover, in the data set with 5α-reductase, the potency result is “surprisingly long half-life and potency compared to finasteride and SKF105657”.
